{
  "source": "patent US20030073115A1",
  "about": "(priority 2002, published 2003)",
  "origin": "cited, not measured here",
  "key": {"[1]": {"test_system": "CNS galanin receptors", "details": "CNS / brain"}, "[2]": {"test_system": "gastrointestinal smooth muscle"}, "[3]": {"test_system": "Galanin receptors in the dorsal hippocampus"}},
  "data": [
    {"compound": "CSCC[C@H](NC(=O)[C@H](CC(C)C)NC(=O)CNC(=O)[C@H](Cc1ccccc1)NC(=O)[C@H](Cc1ccccc1)NC(=O)[C@H](CCC(N)=O)NC(=O)[C@H](CCC(N)=O)NC(=O)[C@@H]1CCCN1C(=O)CNC(=O)[C@H](CC(C)C)NC(=O)[C@H](CC(C)C)NC(=O)[C@H](Cc1ccc(O)cc1)NC(=O)CNC(=O)[C@H](C)NC(=O)[C@H](CO)NC(=O)[C@H](CC(N)=O)NC(=O)[C@H](CC(C)C)NC(=O)[C@@H](NC(=O)[C@H](Cc1c[nH]c2ccccc12)NC(=O)CN)[C@@H](C)O)C(N)=O", "note": "[M15]", "values": [
      {"measurement": "activity at CNS galanin receptors", "setting": "[1]", "value": "antagonist"},
      {"measurement": "activity in gastrointestinal smooth muscle", "setting": "[2]", "value": "full agonist"}
    ]},
    {"compound": "Gal (1-15): galanin fragment 1-15", "values": [
      {"measurement": "affinity", "setting": "[3]", "value": "high affinity"}
    ]}
  ]
}
